Measured values: patent publication US20250221431A1, “METHOD FOR FEEDING BLACK SOLDIER FLY LARVAE WITH SELENIUM-RICH BACTERIA SOLUTION” (priority 2024, published 2025)
Like-named read-outs stand apart in the source and are kept apart here.

Columns and labels:
[1] = tested on: black soldier fly larvae; settings: Example 4, bean pulp/bran/grass meal 3:5:2 feed, 6-day-old larvae
Description: (§1) After the feeding was terminated, the obtained larvae were screened, washed, wiped dry and weighed. The survival rate was calculated according to the number of live larvae. The larvae were subjected to starvation for 1 day, then dried and weighed. The residual feed was also dried and weighed. Thereby, bioconversion efficiency was calculated according to the following: bioconversion efficiency=dry weight of the larvae/(dry weight of the added feed−dry weight of the residual feed)×100%. Selenium content in the larva was determined after smashing the dry larvae according to “GB5009.93-2017 Determination of Selenium in Food”.
(§2) Effects of the selenium-rich bacteria solution on breeding of the selenium-rich black soldier flies were determined according to the indicators, i.e. growth performance of the larvae (survival rate, larva weight), bioconversion efficiency, and selenium content in the larva. Test method for each indicator was the same as that in Example 2.

[2] = tested on: black soldier fly larvae; settings: Example 3, bean pulp/bran/grass meal 3:5:2 feed, 6-day-old larvae
Description: as §1
as §2, with “The test” for “Test”

[3] = tested on: black soldier fly larvae; settings: Example 5, bean pulp/bran/grass meal 3:5:2 feed, 6-day-old larvae
Description: as §1
as §2, with “The effects” for “Effects”

[4] = tested on: black soldier fly larvae; settings: Example 2, chicken feed, 4-day-old larvae
Description: Step 3, 4-day-old black soldier fly larvae were selected to be fed; the selenium-rich bacteria solution was added to chicken feed to enable the chicken feed to have a total selenium content of 100, 200, 300 mg/kg (wet weight), respectively; a moisture content of the chicken feed was controlled to 60%, then the black soldier fly larvae were fed with the chicken feed at a ratio of dry chicken feed to larva being 116 g per 150 larvae (the ratio of dry feed to larva was 0.77) in conditions of 28° C.-30° C. feeding temperature and 60%-70% air humidity level, and feeding was terminated at the end of the fifth instar of the larvae.
The effects of the selenium-rich bacteria solution on breeding of the selenium-rich black soldier flies were determined according to the indicators, i.e. growth performance of the larvae (survival rate, larva weight), bioconversion efficiency, and selenium content in the larva.
as §1

[5] = selenium content added 100.00 mg/kg
[6] = selenium content added 200.00 mg/kg
[7] = selenium content added 300.00 mg/kg

O=[Se](O)O [sodium selenite]
Larva weight [1, 5]: 183.72 ± 9.71 mg per larva
Survival rate [1, 5]: 87.12 ± 6.53%
Larva weight [1, 6]: 156.56 ± 11.10 mg per larva
Survival rate [1, 6]: 89.27 ± 3.40%
Larva weight [1, 7]: 122.15 ± 5.66 mg per larva
Survival rate [1, 7]: 83.17 ± 0.97%
Larva weight [2, 5]: 179.63 ± 9.99 mg per larva
Survival rate [2, 5]: 85.04 ± 8.77%
Larva weight [2, 6]: 154.41 ± 10.66 mg per larva
Survival rate [2, 6]: 84.51 ± 5.06%
Larva weight [2, 7]: 119.53 ± 10.79 mg per larva
Survival rate [2, 7]: 82.22 ± 8.77%
Larva weight [3, 5]: 179.95 ± 9.51 mg per larva
Survival rate [3, 5]: 85.33 ± 6.40%
Larva weight [3, 6]: 153.34 ± 10.87 mg per larva
Survival rate [3, 6]: 87.43 ± 3.33%
Larva weight [3, 7]: 119.64 ± 5.54 mg per larva
Survival rate [3, 7]: 81.46 ± 0.96%
Larva weight [4, 5]: 212.39 ± 9.63 mg per larva
Larva weight [4, 6]: 214.37 ± 7.56 mg per larva
Survival rate [4, 6]: 94.22 ± 1.35%
Larva weight [4, 7]: 210.57 ± 3.50 mg per larva
Survival rate [4, 7]: 91.33 ± 4.27%
